Here are results for 10 molecules from patent US9073925B2, “Azinone-substituted azabicycloalkane-indole and azabicycloalkane-pyrrolo-pyridine MCH-1 antagonists, methods of making, and use thereof” (Albany Molecular Research, Inc., priority 2009, dated 2015).

Where a name gives a salt, the structure may show the parent alone.

The target of the assay is human MCH-1 receptor (Homo sapiens (Human), UniProt Q99705). Kind of assay: Binding assay for human melanin-concentrating hormone (MCH1) receptor. The conditions noted are these: membranes from CHO-K1 cells expressing human MCH-1 receptor; 1.4 nM [3H]-labeled radioligand; 60 min at 25° C.; Ki by Cheng Prusoff. Here is the method: Evaluation of the affinity of compounds for the human MCH-1 receptor was accomplished using 4-(3,4,5-tritritiumbenzyloxy)-1-(1-(2-(pyrrolidin-1-yl)ethyl)-1H-indazol-5-yl)pyridin-2(1H)-one and membranes prepared from stable CHO-K1 cells expressing the human MCH-1 receptor obtained from Euroscreen (Batch 1138). Cell membrane homogenates (8.92 μg protein) were incubated for 60 min at 25° C. with 1.4 nM of the [^3H]-labeled compound in the absence or presence of the test compound in 50 mM Tris-HCl buffer, pH 7.4. Nonspecific binding was determined in the presence of 50 μM 1-(5-(4-cyanophenyl)bicyclo[3.1.0]hexan-2-yl)-3-(4-fluoro-3-(trifluoromethyl)phenyl)-1-(3-(4-methylpiperazin-1-yl)propyl)urea. Following incubation, the samples were filtered rapidly under vacuum through Skatron 11731 filters, pre-soaked in 0.5% polyethylenimine, and washed with ice-cold 50 mM Tris-HCl buffer, pH 7.4, (wash setting 9,9,0) using a Skatron cell harvester. The filters were counted for radioactivity in a liquid scintillation counter (Tri-Carb 2100TR, Packard) using a scintillation cocktail (Ultima Gold MV, Perkin Elmer).
Chain of human MCH-1 receptor (Q99705 whole entry): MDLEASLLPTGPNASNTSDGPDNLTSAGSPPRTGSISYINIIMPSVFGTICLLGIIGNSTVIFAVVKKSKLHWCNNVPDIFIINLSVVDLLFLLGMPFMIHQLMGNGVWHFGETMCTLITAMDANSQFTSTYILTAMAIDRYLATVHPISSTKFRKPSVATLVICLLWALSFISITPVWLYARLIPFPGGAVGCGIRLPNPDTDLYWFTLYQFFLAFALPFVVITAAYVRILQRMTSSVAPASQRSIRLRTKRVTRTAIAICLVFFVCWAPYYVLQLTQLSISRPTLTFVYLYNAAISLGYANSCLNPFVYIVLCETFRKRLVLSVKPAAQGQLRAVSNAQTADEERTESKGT
The results are expressed as a percent inhibition of the control radioligand specific binding. The IC50 value (concentration causing a half-maximal inhibition of control specific binding) and Hill coefficient (nH) were determined by non-linear regression analysis of the competition curve using Hill equation curve fitting. The inhibition constant (Ki) was calculated from the Cheng Prusoff equation: (Ki=IC50/(1+(L/KD)), where L=concentration of radioligand in the assay, and KD=affinity of the radioligand for the receptor.

Consider `Cn1c2c(c3ccc(-n4ccc(OCc5ccc(F)cn5)cc4=O)cc31)CN1CCC2CC1` [Example 4, 4-((5-Fluoropyridin-2-yl)methoxy)-1-(6-methyl-3,4,5,6-tetrahydro-1H-2,5-ethanoazepino[4,3-b]indol-8-yl)pyridin-2(1H)-one hydrochloride], for which the affinity, expressed as Ki, was 44 nM.

Consider `Cn1c2c(c3ccc(-n4ccc(-c5ccc(C(F)(F)F)cn5)cc4=O)cc31)CN1CCC2CC1` [Example 6, 1-(6-Methyl-3,4,5,6-tetrahydro-1H-2,5-ethanoazepino[4,3-b]indol-8-yl)-4-(5-(trifluoromethyl)pyridin-2-yl)pyridin-2(1H)-one hydrochloride], for which the Ki – broadly, a dissociation constant, usually derived from enzyme kinetics or from competition with a known ligand – worked out at 123 nM. The value for `Cn1c2c(c3ccc(-n4ccc(OCc5ccccc5)cc4=O)cc31)CN1CCC2C1` (stereo not shown) [Example 2, 4-(Benzyloxy)-1-(6-methyl-3,4,5,6-tetrahydro-1H-2,5-methanoazepino[4,3-b]indol-8-yl)pyridin-2(1H)-one hydrochloride] was 6.4 nM; that for `Cn1c2c(c3ccc(-n4ccc(OCc5ccc(F)cn5)cc4=O)nc31)CN1CCC2CC1` [Example 11, 4-((5-Fluoropyridin-2-yl)methoxy)-1-(10-methyl-7,8,9,10-tetrahydro-5H-6,9-ethanopyrido[3′,2′:4,5]pyrrolo[3,2-c]azepin-2-yl)pyridin-2(1H)-one hydrochloride] was 25 nM. For the molecule `Cn1c2c(c3ccc(-n4ccc(OCc5ccc(C(F)(F)F)nc5)cc4=O)cc31)CN1CCC2CC1` [Example 7, 1-(6-Methyl-3,4,5,6-tetrahydro-1H-2,5-ethanoazepino[4,3-b]indol-8-yl)-4-((6-(trifluoromethyl)pyridin-3-yl)methoxy)pyridin-2(1H)-one hydrochloride], the Ki is 11 nM. For `Cn1c2c(c3ccc(-n4ccc(OCc5ccccc5)cc4=O)nc31)CN1CCC2CC1` [Example 8, 4-(Benzyloxy)-1-(10-methyl-7,8,9,10-tetrahydro-5H-6,9-ethanopyrido[3′,2′:4,5]pyrrolo[3,2-c]azepin-2-yl)pyridin-2(1H)-one hydrochloride] the value was 29 nM; for `Cn1c2c(c3ccc(-n4ccc(-c5ccc(C(F)(F)F)nn5)cc4=O)cc31)CN1CCC2CC1` [Example 5, 1-(6-Methyl-3,4,5,6-tetrahydro-1H-2,5-ethanoazepino[4,3-b]indol-8-yl)-4-(6-(trifluoromethyl)pyridazin-3-yl)pyridin-2(1H)-one hydrochloride], 23 nM. The value for `Cn1c2c(c3ccc(-n4ccc(-c5ccc(C(F)(F)F)cc5)cc4=O)nc31)CN1CCC2CC1` [Example 10, 1-(10-Methyl-7,8,9,10-tetrahydro-5H-6,9-ethanopyrido[3′,2′:4,5]pyrrolo[3,2-c]azepin-2-yl)-4-(4-(trifluoromethyl)phenyl)pyridin-2(1H)-one hydrochloride] was 15 nM. The value for `Cn1c2c(c3ccc(-n4ccc(OCc5ccc(F)cc5F)cc4=O)nc31)CN1CCC2CC1` [Example 9, 4-(2,4-Difluorobenzyloxy)-1-(10-methyl-7,8,9,10-tetrahydro-5H-6,9-ethanopyrido[3′,2′:4,5]pyrrolo[3,2-c]azepin-2-yl)pyridin-2(1H)-one hydrochloride] was 15 nM; that for `Cn1c2c(c3ccc(-n4ccc(OCc5ccccc5)cc4=O)cc31)CN1CCC2CC1` [Example 3, 4-(Benzyloxy)-1-(6-methyl-3,4,5,6-tetrahydro-1H-2,5-ethanoazepino[4,3-b]indol-8-yl)pyridin-2(1H)-one hydrochloride] was 5.9 nM.
